Converted amounts (≈) assume the structure as drawn. Values belong to the molecule of their own block, whether it stands above or below them.
Tests used:
[1] = tested on: HepG2; assay: Cytotoxicity against human HepG2 cells assessed as cell growth inhibition measured after 48 hrs by MTT assay; type: functional, cell-based; settings: HepG2, 48 h
[2] = tested on: MCF7; assay: Cytotoxicity against human MCF7 cells assessed as cell growth inhibition measured after 48 hrs by MTT assay; type: functional, cell-based; settings: MCF7, 48 h
[3] = tested on: K562; assay: Cytotoxicity against human K562 cells assessed as reduction in cell growth by MTT assay; type: functional, cell-based
[4] = tested on: A549; assay: Cytotoxicity against human A549 cells assessed as reduction in cell growth incubated for 48 hrs by MTT assay; type: functional, cell-based; settings: A549, 48 h
[5] = tested on: MCF7; assay: Cytotoxicity against human MCF7 cells assessed as reduction in cell growth incubated for 48 hrs by MTT assay; type: functional, cell-based; settings: MCF7, 48 h
[6] = tested on: K562; assay: Cytotoxicity against human K562 cells assessed as reduction in cell viability incubated for 72 hrs by MTT assay; type: functional, cell-based; settings: K562, 72 h
[7] = tested on: MCF7; assay: Antiproliferative activity against human MCF7 cells assessed as reduction in cell proliferation by CCK-8 assay; type: functional, cell-based
[8] = tested on: HepG2; assay: Antiproliferative activity against human HepG2 cells assessed as reduction in cell viability; type: functional, cell-based
[9] = tested on: Hep 3B2; assay: Antiproliferative activity against human Hep3B cells assessed as inhibition of cell viability after 72 hrs by CCK-8 assay; type: functional, cell-based
[10] = tested on: A2780; assay: Antiproliferative activity against human A2780 cells assessed as reduction in cell viability incubated for 48 hrs by MTT assay; type: functional, cell-based; settings: A2780, 48 h
[11] = tested on: OVCAR-3; assay: Antiproliferative activity against human OVCAR-3 cells assessed as cell viability measured after 72 hrs incubation by MTT assay; type: functional, cell-based; settings: OVCAR-3, 72 h
[12] = tested on: T47D; assay: Anticancer activity against human T47D cells assessed as cell growth inhibition; type: functional, cell-based
[13] = tested on: MCF7; assay: Growth inhibition of human MCF7 cells incubated for 48 hrs by SRB assay; type: functional
[14] = Cytotoxicity against green monkey COS-7 cells; type: toxicity, cell-based; settings: green monkey (Chlorocebus aethiops)
[15] = tested on: Caco-2; assay: Cytotoxicity against human Caco-2 cells assessed as reduction in cell viability incubated for 72 hrs by MTT assay; type: functional, cell-based; settings: Caco-2, 72 h
[16] = tested on: 4T1; assay: Cytotoxicity against mouse 4T1 cells assessed as inhibition of cell proliferation incubated for 72 hrs by MTT assay; type: functional, cell-based; settings: 4T1, 72 h
[17] = tested on: HeLa; assay: Anticancer activity against human HeLa cells assessed as cell growth inhibition; type: functional
[18] = tested on: DU-145; assay: Anticancer activity against human DU-145 cells assessed as cell growth inhibition; type: functional, cell-based
[19] = Anticancer activity against human SK-MEL-128 cells assessed as cell growth inhibition; type: functional, cell-based
[20] = tested on: A549; assay: Antiproliferative activity against human A549 cells assessed as reduction in cell viability by MTS assay; type: functional, cell-based
[21] = tested on: BT-20; assay: Anticancer activity against human BT-20 cells assessed as cell growth inhibition; type: functional, cell-based
[22] = tested on: HOS; assay: Cytotoxicity against human HOS cells assessed as reduction in cell growth incubated for 5 days by MTT assay; type: functional, cell-based; settings: 120 h
[23] = tested on: HepG2; assay: Antiproliferative activity against human HepG2 cells assessed as reduction in cell viability incubated for 48 hrs by MTT assay; type: functional, cell-based; settings: HepG2, 48 h
[24] = tested on: MCF7; assay: Antiproliferative activity against human MCF7 cells assessed as cell growth inhibition; type: functional, cell-based
[25] = tested on: MCF7; assay: Antiproliferative activity against human MCF7 cells assessed as reduction in cell viability incubated for 72 hrs by MTT assay; type: functional, cell-based; settings: MCF7, 72 h
[26] = tested on: SW480; assay: Cytotoxicity against human SW480 cells assessed as reduction in cell viability incubated for 48 hrs by MTT; type: functional, cell-based; settings: SW480, 48 h
[27] = tested on: MCF7; assay: cells; settings: Homo sapiens, MCF7, 24 h
Description: Cytotoxicity against human MCF7 cells assessed as reduction in cell viability incubated for 24 hrs by MTT assay

SMILES: Cc1cc(-c2cc3cc(Cl)ccc3oc2=O)n(-c2nc(-c3ccc(Cl)cc3)cs2)n1
IC50 [1]: 3.06 µM
IC50 [2]: 4.42 µM

SMILES: COc1ccc(-c2csc(-n3nc(C)cc3-c3cc4cc(Cl)ccc4oc3=O)n2)cc1
IC50 [2]: 4.03 µM

SMILES: Cc1c(Cc2ccc(NC(=O)Nc3ccc(F)c(F)c3)nc2)c(=O)oc2cc(O)c(C(C)(C)C)cc12
IC50 [3]: 1.66 µM

SMILES: O=C(CNCc1cccnc1)Nc1cc2ccccc2oc1=O
IC50 [4]: 69.1 µM
IC50 [5]: 69.1 µM

SMILES: COc1cccc(-c2cn(Cc3cc(=O)oc4cc(O)c(O)cc34)nn2)c1
IC50 [6]: 17.9 µM

SMILES: CCN(CC)c1ccc2cc(C(=O)N3CCN(CCC[C@H]4O[C@@H]5O[C@@]6(C)CC[C@H]7[C@H](C)CC[C@@H]([C@H]4C)[C@@]57OO6)CC3)c(=O)oc2c1
IC50 [8]: 3.05 µM
IC50 [9]: 3.76 µM
IC50 [10]: 5.82 µM
IC50 [11]: 4.6 µM

SMILES: Cc1cc(-c2cc3ccccc3oc2=O)n(-c2nc(-c3ccc(Cl)cc3)cs2)n1
IC50 [1]: 3.74 µM

SMILES: O=c1oc2ccccc2cc1-c1csc(N/N=C/c2cc([N+](=O)[O-])ccc2Cl)n1
IC50 [14]: 1.96 µM

SMILES: COc1ccccc1-c1cn(Cc2cc(=O)oc3cc(O)c(O)cc23)nn1
IC50 [15]: 9.7 µM

SMILES: O=C(Cc1cc(=O)oc2cc(O)ccc12)NCCCCCCCCNc1c2c(nc3ccccc13)CCCC2
IC50 [16]: 7 µM

SMILES: Nn1c(Cc2ccc(Cl)cc2)nn(CC(=O)NNC(=O)c2cc3cc(Cl)cc(Cl)c3oc2=O)c1=O
IC50 [20]: 7.5 µg/mL (≈ 13.9 µM)

SMILES: Cn1cc(C(C)(c2cc3ccccc3oc2=O)c2cn(C)c3ccccc23)c2ccccc21
IC50 [22]: 12.2 µM

SMILES: COc1cc(/C=C/c2ccc3ccc(=O)oc3c2)ccc1O
IC50 [26]: 5.33 µM

Now from value to molecule, other results behind:

IC50 [7]: 0.032 µM
SMILES: Cc1c(Cc2ccccc2)c(=O)oc2cc(OS(N)(=O)=O)ccc12

IC50 [7]: 0.008 µM
SMILES: CCCCCCc1c(C)c2ccc(OS(N)(=O)=O)cc2oc1=O

IC50 [12]: 2.32 µM
GI50 [13]: < 10 µg/mL
SMILES: O=C(/C=C/c1ccc(OCCN2CCCCC2)cc1)c1cc2ccccc2oc1=O

GI50 [17]: 36.2 µg/mL (≈ 84.1 µM)
SMILES: Cc1ccc(S(=O)(=O)n2c(-c3cc(=O)oc4ccc(C)cc34)nc3ccccc32)cc1

GI50 [17]: 35.3 µg/mL (≈ 79.1 µM)
SMILES: COc1ccc2oc(=O)cc(-c3nc4ccccc4n3S(=O)(=O)c3ccc(C)cc3)c2c1

IC50 [18]: 3.7 µg/mL (≈ 6.88 µM)
SMILES: Nn1c(Cc2ccc(Cl)c(Cl)c2)nn(CC(=O)NNC(=O)c2cc3cc(Cl)ccc3oc2=O)c1=O
IC50 [19]: 12.3 µg/mL (≈ 22.9 µM)

IC50 [21]: 6.4 µg/mL (≈ 11 µM)
SMILES: Nn1c(Cc2ccccc2Br)nn(CC(=O)NNC(=O)c2cc3cc(Cl)cc(Cl)c3oc2=O)c1=O

IC50 [23]: 5.03 µM
SMILES: C/C(=N\NC1=NCC(=O)S1)c1ccc(NS(=O)(=O)c2ccc3oc(=O)ccc3c2)cc1

IC50 [24]: 49 µM
SMILES: O=C1CCn2cc(nn2)CCOc2ccccc2C(C(=O)c2cc3ccccc3oc2=O)N1 (configuration not stated)

IC50 [25]: 9.62 µg/mL (≈ 22.4 µM)
SMILES: Cc1cc(=O)oc2cc(OCC(=O)Nc3ccc(C(=O)/C=C/c4ccco4)cc3)ccc12

IC50 [27]: 11.2 µM
SMILES: C/C(=N\Nc1nc(C)c(/N=N/c2ccc(C)cc2)s1)c1cc2cc(/N=N/c3ccccc3)ccc2oc1=O

IC50 [25]: 20.9 µg/mL (≈ 43.1 µM)
SMILES: COc1ccc(/C=C/C(=N/O)c2ccc(NC(=O)COc3ccc4c(C)cc(=O)oc4c3)cc2)cc1

Reference: ChEMBL document CHEMBL5357036, “Latest developments in coumarin-based anticancer agents: mechanism of action and structure-activity relationship studies” (RSC Med Chem, 2024)
